Assays:
[1] = Cardiotoxicity in Beagle dog assessed as effect on PR interval at 0.1 to 1 mg/kg; assay type: toxicity, organism-based, Canis lupus familiaris; settings: in vivo, dose 0.1-1 mg/kg
[2] = Terminal half life in human plasma at 12 mg, po; assay type: ADME, cell-free; settings: read-out: beta t1/2 (converted)
[3] = Protein binding in rat plasma; assay type: ADME, cell-free; settings: read-out: PPB (converted)
[4] = Half life in Sprague-Dawley rat at 0.5 mg/kg, po; assay type: ADME, organism-based; settings: in vivo
[5] = AUC (0 to infinity) in Sprague-Dawley rat plasma at 10 mg/kg, po; assay type: ADME, organism-based; set-up: route oral, time infinity, dose 10 mg/kg
[6] = molecular target: Cytochrome P450 2C19 (Homo sapiens, UniProt P33261); assay: Inhibition of CYP2C19 in human hepatocytes; assay type: ADME, cell-based, Hepatocyte
[7] = Mutagenecity against CHL cells; assay type: ADME, cell-based, Cricetulus griseus; settings: chinese hamster
[8] = Tmax in human plasma at 8 mg, po; assay type: ADME, cell-free
[9] = Cardiotoxicity in Beagle dog assessed as effect on QRS interval at 0.1 to 1 mg/kg; assay type: toxicity, organism-based, Canis lupus familiaris; settings: in vivo, dose 0.1-1 mg/kg
[10] = Toxicity in Beagle dog assessed as effect on body temperature at 0.1 to 1 mg/kg; assay type: organism-based, Canis lupus familiaris; settings: in vivo, dose 0.1-1 mg/kg
[11] = molecular target: Cytochrome P450 3A4 (Homo sapiens, UniProt P08684); assay: Inhibition of CYP3A4 in human hepatocytes; assay type: ADME, cell-based, Hepatocyte
[12] = Induction of CYP3A4 expression in human hepatocytes at 10 uM; assay type: ADME, cell-based, Hepatocyte

Sequence of Cytochrome P450 3A4 (P08684 whole entry): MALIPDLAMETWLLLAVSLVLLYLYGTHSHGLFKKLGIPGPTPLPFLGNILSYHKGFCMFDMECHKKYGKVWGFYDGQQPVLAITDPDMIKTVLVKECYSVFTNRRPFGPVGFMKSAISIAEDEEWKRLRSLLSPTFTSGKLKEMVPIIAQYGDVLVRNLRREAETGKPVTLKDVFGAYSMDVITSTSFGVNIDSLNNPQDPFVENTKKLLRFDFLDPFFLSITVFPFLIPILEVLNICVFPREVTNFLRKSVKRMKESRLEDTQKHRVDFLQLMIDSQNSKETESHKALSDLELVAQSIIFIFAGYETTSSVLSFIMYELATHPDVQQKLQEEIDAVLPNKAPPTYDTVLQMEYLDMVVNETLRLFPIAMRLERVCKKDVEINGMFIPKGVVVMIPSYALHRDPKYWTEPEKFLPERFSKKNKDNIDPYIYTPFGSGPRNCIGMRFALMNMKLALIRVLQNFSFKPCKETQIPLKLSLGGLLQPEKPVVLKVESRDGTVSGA
Sequence of Cytochrome P450 2C19 (P33261 whole entry): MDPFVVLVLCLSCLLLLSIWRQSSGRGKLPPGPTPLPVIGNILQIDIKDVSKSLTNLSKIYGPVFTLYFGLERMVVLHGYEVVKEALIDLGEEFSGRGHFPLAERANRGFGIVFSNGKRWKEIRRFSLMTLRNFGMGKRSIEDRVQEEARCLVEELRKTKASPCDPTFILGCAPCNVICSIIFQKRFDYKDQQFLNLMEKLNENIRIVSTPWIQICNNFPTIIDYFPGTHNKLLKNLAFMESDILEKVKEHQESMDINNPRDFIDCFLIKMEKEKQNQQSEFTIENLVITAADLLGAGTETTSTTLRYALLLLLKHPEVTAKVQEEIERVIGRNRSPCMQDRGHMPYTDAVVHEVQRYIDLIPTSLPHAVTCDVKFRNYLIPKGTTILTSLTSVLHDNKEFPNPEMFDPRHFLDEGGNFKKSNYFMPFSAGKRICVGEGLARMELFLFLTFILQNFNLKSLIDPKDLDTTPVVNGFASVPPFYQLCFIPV

## COc1cc2c(cc1OC)C(=O)C(CC1(F)CCN(Cc3ccccc3F)CC1)C2 (configuration not stated)
[1]
  Activity: Non-Toxic
[2]
  half-life: 32.1 h
[3]
  fraction unbound: 0.031
[4]
  half-life: 4.17 h
[5]
  AUC(0-inf): 1140 ng·h/mL
[6]
  IC50: > 30 µM
[7]
  Activity: Non-Toxic
[8]
  Tmax: 1.13 h
[9]
  Activity: Non-Toxic
[10]
  Activity: Non-Toxic
[11]
  IC50: > 30 µM
[12]
  Activity: Non-Toxic

Source: ChEMBL document CHEMBL4813953, “Kinetics-Driven Drug Design Strategy for Next-Generation Acetylcholinesterase Inhibitors to Clinical Candidate” (J Med Chem, 2021)
